Among the data in ChEMBL document CHEMBL1255186, “A novel 18F-labeled pyridyl benzofuran derivative for imaging of β-amyloid plaques in Alzheimer's brains” (Bioorg Med Chem Lett, 2010) are Drug uptake, Ki and Activity values, retold here.

Molecules are shown by their SMILES. Active and inactive are the calls of the source. No cut-off for these calls is given here.

Series [1] deals with Blood. The series can be described thus: Biodistribution in mouse blood at 444 kBq/50 uL after 60 mins. Type of series: ADME, organism-based. The settings on record: in vivo, 1 h.
Series [2] relates to Bone. The series can be described thus: Biodistribution in mouse bone at 444 kBq/50 uL after 2 mins. Type of series: ADME, organism-based, Bone element. As to conditions: in vivo.
Series [3] has as its system Bone. Put plainly: Biodistribution in mouse bone at 444 kBq/50 uL after 10 mins. Type of series: ADME, organism-based, Bone element. As to conditions: in vivo.
The subject of series [4] is Brain. Put plainly: Biodistribution in mouse brain at 444 kBq/50 uL after 60 mins. It is filed as ADME, organism-based. The settings on record: in vivo, 1 h.
The subject of series [5] is Brain. Put plainly: Biodistribution in mouse brain at 444 kBq/50 uL after 30 mins. It is filed as ADME, organism-based. As to conditions: in vivo, 0.5 h.
The subject of series [6] is Brain. Put plainly: Biodistribution in mouse brain at 444 kBq/50 uL after 10 mins. It is filed as ADME, organism-based. As to conditions: in vivo.
Series [7] concerns Bone. The series can be described thus: Biodistribution in mouse bone at 444 kBq/50 uL after 60 mins. It is filed as ADME, organism-based, Bone element. The settings on record: in vivo, 1 h.
A short description of series [8]: Displacement of [125I]IMPY from amyloid beta 1-42.
In series [9] the test system is Blood. Put plainly: Biodistribution in mouse blood at 444 kBq/50 uL after 2 mins. The settings on record: in vivo. Type of series: ADME, organism-based.
Series [10] deals with Blood. The series can be described thus: Biodistribution in mouse blood at 444 kBq/50 uL after 30 mins. It is filed as ADME, organism-based. The settings on record: in vivo, 0.5 h.
The test system of series [11] is Blood. Put plainly: Biodistribution in mouse blood at 444 kBq/50 uL after 10 mins. It is filed as ADME, organism-based. As to conditions: in vivo.
Series [12] concerns Bone. The series can be described thus: Biodistribution in mouse bone at 444 kBq/50 uL after 30 mins. Type of series: ADME, organism-based, Bone element. As to conditions: in vivo, 0.5 h.
Series [13] concerns Brain. The series can be described thus: Biodistribution in mouse brain at 444 kBq/50 uL after 2 mins. Type of series: ADME, organism-based. As to conditions: in vivo.
The species named for series [14] is Mus musculus. Put plainly: Reduction of amyloid beta40 level in Tg2576 mouse entorhinal cortex at 11.1 MBq. As to conditions: 11.1 M, tested as the 18F-labelled form. Type of series: functional, tissue-based.
For series [15], the species on record is Mus musculus. Put plainly: Reduction of amyloid beta40 level in Tg2576 mouse dentate gyrus at 11.1 MBq. It is filed as functional, tissue-based. The settings on record: 11.1 M, tested as the 18F-labelled form.
The subject of the next series is Hippocampus. Put plainly: Reduction of amyloid beta40 level in Tg2576 mouse hippocampus at 11.1 MBq. Type of series: functional, tissue-based. As to conditions: 11.1 M, tested as the 18F-labelled form.
Another series has as its system Cortex. The series can be described thus: Reduction of amyloid beta40 level in Tg2576 mouse cortex at 11.1 MBq. The settings on record: 11.1 M, tested as the 18F-labelled form. It is filed as functional, tissue-based.

As to `CN(C)c1ccc(-c2cc3cc(OCCOCCOCC[18F])ccc3o2)cn1`, the Drug uptake was found to be 1.98 % ID/g with Blood [1]; 1.61 % ID/g in the series on Bone [2]; 1.33 % ID/g in the series on Bone [3]; 2.44 % ID/g in the series on Brain [4]; 2.78 % ID/g in the series with Brain [5]; 3.75 % ID/g in the series with Brain [6]. The Drug uptake was 1.42 % ID/g in the series on Bone [7]; 2.83 % ID/g in the series with Blood [9]; 1.76 % ID/g with Blood [10]; 2.13 % ID/g in the series on Blood [11]; 1.11 % ID/g in the series on Bone [12]; 5.16 % ID/g in the series on Brain [13]. The affinity in [8] corresponds to a Ki of 900 pM.

For the molecule `CN(C)c1ccc(-c2cc3cc(OCCOCCOCCF)ccc3o2)cn1`, the result in the series filed under Mus musculus [14], in the series filed under Mus musculus [15], in the series with Hippocampus and in the series on Cortex was Active.
